Measurements reported in patent US20160212997A1, “AGRICULTURAL CHEMICALS” (REDAG CROP PROTECTION LTD, priority 2013, published 2016).
Read-outs that look alike come from different tables or passages of the source.

How the values were obtained:
Type in all cases: in vivo
aphids, Myzus persicae = assay: Potter tower spray on aphids, knockdown and mortality; conditions: Aphids; for pest or weed control at 0.1 % strength: Myzus persicae, 0.1 % w/v, read-out: Average of % corrected affected
Method in brief: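 Ten aphids (mixed sex and age) per Petri dish on a leaf disc were sprayed by Potter tower with compounds at five concentrations in DMSO. Knockdown and mortality were scored at 24 and 48 hours, five replicates per treatment, alongside carrier-only and untreated controls.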

[1] = test system: caterpillars, a mixture of Mamestra brassicae and Lacanobia oleracea; assay: Potter tower spray on caterpillars, knockdown and mortality; conditions: Caterpillars, read-out: Average of % corrected affected; for pest or weed control at 0.1 % strength: 0.1 % w/v; for pest or weed control at 0.00625 % strength: 0.00625 % w/v; for pest or weed control at 0.0125 % strength: 0.0125 % w/v; for pest or weed control at 0.025 % strength: 0.025 % w/v; for pest or weed control at 0.05 % strength: 0.05 % w/v
Method in brief: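 Mixed Mamestra brassicae and Lacanobia oleracea larvae (ten per dish, on leaf disc over damp cotton wool) sprayed directly with a Potter tower at five concentrations in DMSO containing 1% v/v Tween 20, alongside carrier-only and untreated controls. Knockdown and mortality scored at 24 and 48 h post treatment; five replicates per treatment.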

[2] = test system: red spider mites, Tetranychus urticae; assay: Potter tower spray on red spider mites, knockdown and mortality; conditions: for percentage control: Spider mites; for activity against spider mites compared with the reference compound: versus flupyradifurone or sulfoxaflor respectively, tables 1 and 3
From the text: The compounds were screened for insecticidal efficacy against aphids, Myzus persicae, Cabbage moth, Mamestra brassicae, diamond black moths, Plutella xylostella, red spider mites, Tetranychus urticae, whitefly, Trialeurodes vaporariorum, in terms of knockdown and mortality.
Myzus persicae, Cabbage moth, Mamestra brassicae, diamond back moths, Plutella xylostella, red spider mites, Tetranychus urticae, whitefly, Trialeurodes vaporariorum, were obtained from specified laboratory cultures. Mixed sex and age aphids and mites, moth larvae and whitefly scale infested leaves were used in the experiments. Environmental conditions were closely monitored and recorded and were within the optimal range of the target species.
The compounds were screened at a range of five concentrations, diluted in DMSO. Some of the compounds were screened against aphids, whitefly and red spider mites and other compounds were screened against cabbage moth, and diamond black moths. A carrier only and an untreated control will also be conducted. Treatments were applied directly onto the insects within Petri dishes, using a potter tower.
Twenty mites and ten aphids, scales and moth larvae were placed within a Petri dish, lined with a suitable leaf disc on a damp cotton wool pad. Scales were already on leaves. The Petri dishes were then sprayed using a potter tower. The number of knocked down and anthropods were assessed at 24 and 48 hours post treatment. Five replicates were be performed for each treatment, for each species.

[3] = 24 h, 24 hours post application
[4] = 48 h, 48 hours post application

Structure (SMILES) | percentage control (aphids, Myzus persicae; 12.5 g/ha, 24 h) | percentage control (aphids, Myzus persicae; 12.5 g/ha, 48 h) | percentage control (aphids, Myzus persicae; 25 g/ha, 24 h) | percentage control (aphids, Myzus persicae; 25 g/ha, 48 h) | percentage control (aphids, Myzus persicae; 50 g/ha, 24 h) | percentage control (aphids, Myzus persicae; 50 g/ha, 48 h) | percentage control (aphids, Myzus persicae; 100 g/ha, 24 h) | percentage control (aphids, Myzus persicae; 100 g/ha, 48 h) | percentage control (aphids, Myzus persicae; 200 g/ha, 24 h) | percentage control (aphids, Myzus persicae; 200 g/ha, 48 h) | pest or weed control at 0.1 % strength (aphids, Myzus persicae; [3]) [%] | pest or weed control at 0.1 % strength (aphids, Myzus persicae; [4]) [%] | pest or weed control at 0.1 % strength [1, 3] [%] | pest or weed control at 0.00625 % strength [1, 4] [%] | pest or weed control at 0.0125 % strength [1, 4] [%] | pest or weed control at 0.025 % strength [1, 4] [%] | pest or weed control at 0.05 % strength [1, 4] [%] | pest or weed control at 0.1 % strength [1, 4] [%] | percentage control ([2]; 12.5 g/ha, 24 h) | percentage control ([2]; 12.5 g/ha, 48 h) | other results
COC(=O)N=S(C)(=O)C(C)c1ccc(C(F)(F)F)nc1 (stereo not shown) [Compound 13, Methyl N-[methyl-oxo-[1-[6-(trifluoromethyl)-3-pyridyl]ethyl]-λ^6-sulfanylidene]carbamate] | E (A percentage control of from 1 to 19 is indicated by the letter E) | D (A percentage control of from 20 to 39 is indicated by the letter D) | E (A percentage control of from 1 to 19 is indicated by the letter E) | D (A percentage control of from 20 to 39 is indicated by the letter D) | E (A percentage control of from 1 to 19 is indicated by the letter E) | D (A percentage control of from 20 to 39 is indicated by the letter D) | E (A percentage control of from 1 to 19 is indicated by the letter E) | E (A percentage control of from 1 to 19 is indicated by the letter E) | D (A percentage control of from 20 to 39 is indicated by the letter D) | C (A percentage control of from 40 to 59 is indicated by the letter C) | 20 to 39 | 20 to 39 | 1 to 19 | 1 to 19 | 1 to 19 | 1 to 19 | 1 to 19 | 20 to 39 | D (A percentage control of from 20 to 39 is indicated by the letter D) | B (A percentage control of from 60 to 79 is indicated by the letter B) | percentage control ([2]; 25 g/ha, 24 h): D (A percentage control of from 20 to 39 is indicated by the letter D); percentage control ([2]; 25 g/ha, 48 h): C (A percentage control of from 40 to 59 is indicated by the letter C); percentage control ([2]; 50 g/ha, 24 h): D (A percentage control of from 20 to 39 is indicated by the letter D); percentage control ([2]; 50 g/ha, 48 h): B (A percentage control of from 60 to 79 is indicated by the letter B); percentage control ([2]; 100 g/ha, 24 h): D (A percentage control of from 20 to 39 is indicated by the letter D); percentage control ([2]; 100 g/ha, 48 h): B (A percentage control of from 60 to 79 is indicated by the letter B); percentage control ([2]; 200 g/ha, 24 h): D (A percentage control of from 20 to 39 is indicated by the letter D); percentage control ([2]; 200 g/ha, 48 h): B (A percentage control of from 60 to 79 is indicated by the letter B); activity against spider mites compared with the reference compound [2]: more active than the reference compound
CC(=O)N=S(C)(=O)C(C)c1ccc(C(F)(F)F)nc1 (stereo not shown) [Compound 12, N-[Methyl-oxo-[1-[6-(trifluoromethyl)-3-pyridyl]ethyl]-λ^6-sulfanylidene]acetamide] | E (A percentage control of from 1 to 19 is indicated by the letter E) | D (A percentage control of from 20 to 39 is indicated by the letter D) | E (A percentage control of from 1 to 19 is indicated by the letter E) | D (A percentage control of from 20 to 39 is indicated by the letter D) | E (A percentage control of from 1 to 19 is indicated by the letter E) | C (A percentage control of from 40 to 59 is indicated by the letter C) | E (A percentage control of from 1 to 19 is indicated by the letter E) | D (A percentage control of from 20 to 39 is indicated by the letter D) | E (A percentage control of from 1 to 19 is indicated by the letter E) | D (A percentage control of from 20 to 39 is indicated by the letter D) | 20 to 39 | 40 to 59 | 1 to 19 | 1 to 19 | 1 to 19 | 1 to 19 | 1 to 19 | 1 to 19 | D (A percentage control of from 20 to 39 is indicated by the letter D) | D (A percentage control of from 20 to 39 is indicated by the letter D) | percentage control ([2]; 25 g/ha, 24 h): D (A percentage control of from 20 to 39 is indicated by the letter D); percentage control ([2]; 25 g/ha, 48 h): D (A percentage control of from 20 to 39 is indicated by the letter D); percentage control ([2]; 50 g/ha, 24 h): C (A percentage control of from 40 to 59 is indicated by the letter C); percentage control ([2]; 50 g/ha, 48 h): C (A percentage control of from 40 to 59 is indicated by the letter C); percentage control ([2]; 100 g/ha, 24 h): B (A percentage control of from 60 to 79 is indicated by the letter B); percentage control ([2]; 100 g/ha, 48 h): B (A percentage control of from 60 to 79 is indicated by the letter B); percentage control ([2]; 200 g/ha, 24 h): B (A percentage control of from 60 to 79 is indicated by the letter B); percentage control ([2]; 200 g/ha, 48 h): A (A percentage control of from 80 to 100 is indicated by the letter A); activity against spider mites compared with the reference compound [2]: more active than the reference compound
